Test results taken from the supplement of paper PMC11451515.

Assays:
Details in all cases: 48 h
SEM cells [1] = experiment: cell viability relative to DMSO control; higher = less cytotoxic
Procedure, shortened: (§1)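 Viability is expressed as a percentage of DMSO wells within each plate, and cell-free wells serve as background. Seeding densities in the 1536-well plates (5 μl) were 500 cells/well for NOMO1 or SEM leukemia cells and 1000 cells/well for P12-Ichikawa. Each line was adapted for at least four passages in each medium. Library compounds in DMSO were pin-dosed at 47 μM to 0.79 nM (11 points, threefold), and CellTiter-Glo One luminescence was read after 48 h at 37°C.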

P12-Ichikawa [2] = experiment: as above
Procedure, shortened: as §1

NOMO1 [3] = experiment: as above
Procedure, shortened: as §1

SEM cells [4] = experiment: AUC of viability dose-response curve (% viability x log10 dose units); higher = less sensitive
Procedure, shortened: (§2)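 In 1536-well plates, leukemia cells adapted to each medium (500 or 1000 cells/well) were exposed for 48 h at 37°C to library compounds in DMSO across 11 threefold doses, 47 μM down to 0.79 nM. Viability was read by CellTiter-Glo One luminescence and normalised per plate to DMSO and cell-free wells. A four-parameter log-logistic fit over log10 doses was integrated by trapezoidal rule. This yielded the area under the curve, with over-full-viability curves scaled and quality-control failures dropped.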

P12-Ichikawa [5] = experiment: as above
Procedure, shortened: as §2

NOMO1 [6] = experiment: as above
Procedure, shortened: as §2

OC[C@H]1O[C@@H](Oc2cc(O)cc(/C=C/c3ccc(O)cc3)c2)[C@H](O)[C@@H](O)[C@@H]1O
cell viability [%]
Details | NOMO1 [3] | P12-Ichikawa [2] | SEM cells [1]
HPLM + 10% dialyzed FBS, 0.000781 µM | 85.6 | 98.2 | 71.9
HPLM + 10% dialyzed FBS, 0.00234 µM | 116 | 110 | 89.5
HPLM + 10% dialyzed FBS, 0.00702 µM | 107 | 108 | 97.3
HPLM + 10% dialyzed FBS, 0.0211 µM | 128 | 113 | 105
HPLM + 10% dialyzed FBS, 0.0632 µM | 115 | 113 | 101
HPLM + 10% dialyzed FBS, 0.19 µM | 111 | 107 | 108
HPLM + 10% dialyzed FBS, 0.569 µM | 99.4 | 108 | 108
HPLM + 10% dialyzed FBS, 1.71 µM | 74.8 | 131 | 108
HPLM + 10% dialyzed FBS, 5.12 µM | 63.1 | 110 | 95.4
HPLM + 10% dialyzed FBS, 15.4 µM | 58.8 | 117 | 116
HPLM + 10% dialyzed FBS, 46.1 µM | 45 | 117 | 115
RPMI 5 mM glucose + 10% FBS, 0.000781 µM | 102 | 110 | 79.3
RPMI 5 mM glucose + 10% FBS, 0.00234 µM | 99.2 | 114 | 102
RPMI 5 mM glucose + 10% FBS, 0.00702 µM | 111 | 106 | 89.7
RPMI 5 mM glucose + 10% FBS, 0.0211 µM | 121 | 113 | 104
RPMI 5 mM glucose + 10% FBS, 0.0632 µM | 104 | 116 | 97.4
RPMI 5 mM glucose + 10% FBS, 0.19 µM | 106 | 125 | 110
RPMI 5 mM glucose + 10% FBS, 0.569 µM | 98.1 | 117 | 85.7
RPMI 5 mM glucose + 10% FBS, 1.71 µM | 91.5 | 123 | 102
RPMI 5 mM glucose + 10% FBS, 5.12 µM | 84.2 | 105 | 117
RPMI 5 mM glucose + 10% FBS, 15.4 µM | 63.2 | 103 | 119
RPMI 5 mM glucose + 10% FBS, 46.1 µM | 63.3 | 101 | 104
RPMI 5 mM glucose + 10% dialyzed FBS, 0.000781 µM | 85.6 | 89.9 | 86.2
RPMI 5 mM glucose + 10% dialyzed FBS, 0.00234 µM | 92.4 | 109 | 104
RPMI 5 mM glucose + 10% dialyzed FBS, 0.00702 µM | 88.3 | 105 | 94
RPMI 5 mM glucose + 10% dialyzed FBS, 0.0211 µM | 98.4 | 105 | 102
RPMI 5 mM glucose + 10% dialyzed FBS, 0.0632 µM | 109 | 114 | 93.2
RPMI 5 mM glucose + 10% dialyzed FBS, 0.19 µM | 108 | 107 | 104
RPMI 5 mM glucose + 10% dialyzed FBS, 0.569 µM | 103 | 115 | 102
RPMI 5 mM glucose + 10% dialyzed FBS, 1.71 µM | 84.7 | 112 | 119
RPMI 5 mM glucose + 10% dialyzed FBS, 5.12 µM | 51.9 | 103 | 114
RPMI 5 mM glucose + 10% dialyzed FBS, 15.4 µM | 52.7 | 102 | 117
RPMI 5 mM glucose + 10% dialyzed FBS, 46.1 µM | 76.5 | 101 | 114

AUC of viability dose-response curve
Details | NOMO1 [6] | P12-Ichikawa [5] | SEM cells [4]
HPLM + 10% dialyzed FBS | 397 | 449 | 451
RPMI 5 mM glucose + 10% FBS | 426 | 465 | 433
RPMI 5 mM glucose + 10% dialyzed FBS | 416 | 473 | 429

O=C(/C=C/c1ccc(O)cc1)c1ccc(O)cc1O
cell viability [%]
Details | NOMO1 [3] | P12-Ichikawa [2] | SEM cells [1]
HPLM + 10% dialyzed FBS, 0.000781 µM | 138 | 108 | 113
HPLM + 10% dialyzed FBS, 0.00234 µM | 116 | 98.4 | 112
HPLM + 10% dialyzed FBS, 0.00702 µM | 117 | 95 | 131
HPLM + 10% dialyzed FBS, 0.0211 µM | 110 | 109 | 108
HPLM + 10% dialyzed FBS, 0.0632 µM | 104 | 106 | 141
HPLM + 10% dialyzed FBS, 0.19 µM | 126 | 104 | 131
HPLM + 10% dialyzed FBS, 0.569 µM | 128 | 103 | 120
HPLM + 10% dialyzed FBS, 1.71 µM | 97.2 | 95.9 | 109
HPLM + 10% dialyzed FBS, 5.12 µM | 106 | 99.6 | 124
HPLM + 10% dialyzed FBS, 15.4 µM | 82.4 | 87.8 | 81.2
HPLM + 10% dialyzed FBS, 46.1 µM | 46.8 | 43.1 | 26.6
RPMI 5 mM glucose + 10% FBS, 0.000781 µM | 112 | 108 | 118
RPMI 5 mM glucose + 10% FBS, 0.00234 µM | 105 | 103 | 122
RPMI 5 mM glucose + 10% FBS, 0.00702 µM | 101 | 110 | 134
RPMI 5 mM glucose + 10% FBS, 0.0211 µM | 109 | 105 | 125
RPMI 5 mM glucose + 10% FBS, 0.0632 µM | 113 | 111 | 124
RPMI 5 mM glucose + 10% FBS, 0.19 µM | 110 | 108 | 133
RPMI 5 mM glucose + 10% FBS, 0.569 µM | 119 | 98.3 | 106
RPMI 5 mM glucose + 10% FBS, 1.71 µM | 98.8 | 98.5 | 116
RPMI 5 mM glucose + 10% FBS, 5.12 µM | 103 | 107 | 111
RPMI 5 mM glucose + 10% FBS, 15.4 µM | 96.1 | 65.9 | 79.6
RPMI 5 mM glucose + 10% FBS, 46.1 µM | 86.6 | 11.7 | 17
RPMI 5 mM glucose + 10% dialyzed FBS, 0.000781 µM | 120 | 105 | 98
RPMI 5 mM glucose + 10% dialyzed FBS, 0.00234 µM | 103 | 101 | 94.4
RPMI 5 mM glucose + 10% dialyzed FBS, 0.00702 µM | 109 | 109 | 118
RPMI 5 mM glucose + 10% dialyzed FBS, 0.0211 µM | 106 | 106 | 91.9
RPMI 5 mM glucose + 10% dialyzed FBS, 0.0632 µM | 107 | 119 | 121
RPMI 5 mM glucose + 10% dialyzed FBS, 0.19 µM | 110 | 113 | 105
RPMI 5 mM glucose + 10% dialyzed FBS, 0.569 µM | 110 | 104 | 100
RPMI 5 mM glucose + 10% dialyzed FBS, 1.71 µM | 88.4 | 97.3 | 91
RPMI 5 mM glucose + 10% dialyzed FBS, 5.12 µM | 102 | 95.5 | 81.8
RPMI 5 mM glucose + 10% dialyzed FBS, 15.4 µM | 109 | 41.8 | 59.5
RPMI 5 mM glucose + 10% dialyzed FBS, 46.1 µM | 70.2 | 9.51 | 9.38

AUC of viability dose-response curve
Details | NOMO1 [6] | P12-Ichikawa [5] | SEM cells [4]
HPLM + 10% dialyzed FBS | 437 | 454 | 443
RPMI 5 mM glucose + 10% FBS | 460 | 438 | 433
RPMI 5 mM glucose + 10% dialyzed FBS | 452 | 420 | 417

CCCC1OC2C[C@H]3[C@@H]4CCC5=CC(=O)C=C[C@]5(C)[C@H]4C(O)C[C@]3(C)[C@]2(C(=O)CO)O1 (stereo partly drawn)
cell viability [%]
Details | NOMO1 [3] | P12-Ichikawa [2] | SEM cells [1]
HPLM + 10% dialyzed FBS, 0.000781 µM | – | 114 | 88.6
HPLM + 10% dialyzed FBS, 0.00234 µM | – | 120 | 84.3
HPLM + 10% dialyzed FBS, 0.00702 µM | – | 109 | 97.1
HPLM + 10% dialyzed FBS, 0.0211 µM | – | 95.8 | 85.3
HPLM + 10% dialyzed FBS, 0.0632 µM | – | 79 | 69
HPLM + 10% dialyzed FBS, 0.19 µM | – | 68.7 | 67
HPLM + 10% dialyzed FBS, 0.569 µM | – | 67.3 | 62.2
HPLM + 10% dialyzed FBS, 1.71 µM | – | 64 | 51
HPLM + 10% dialyzed FBS, 5.12 µM | – | 64.9 | 48
HPLM + 10% dialyzed FBS, 15.4 µM | – | 60 | 46.2
HPLM + 10% dialyzed FBS, 46.1 µM | – | 49 | 27.4
RPMI 5 mM glucose + 10% FBS, 0.000781 µM | 106 | 116 | 95.2
RPMI 5 mM glucose + 10% FBS, 0.00234 µM | 105 | 114 | 125
RPMI 5 mM glucose + 10% FBS, 0.00702 µM | 107 | 99.1 | 95.7
RPMI 5 mM glucose + 10% FBS, 0.0211 µM | 111 | 90 | 86.7
RPMI 5 mM glucose + 10% FBS, 0.0632 µM | 107 | 70.6 | 81.4
RPMI 5 mM glucose + 10% FBS, 0.19 µM | 104 | 57.8 | 66
RPMI 5 mM glucose + 10% FBS, 0.569 µM | 106 | 57.6 | 46.3
RPMI 5 mM glucose + 10% FBS, 1.71 µM | 103 | 50.1 | 59.9
RPMI 5 mM glucose + 10% FBS, 5.12 µM | 100 | 51.2 | 48.6
RPMI 5 mM glucose + 10% FBS, 15.4 µM | 97.5 | 51.3 | 46.2
RPMI 5 mM glucose + 10% FBS, 46.1 µM | 46.7 | 39.7 | 18.2
RPMI 5 mM glucose + 10% dialyzed FBS, 0.000781 µM | 99.5 | 116 | 87.4
RPMI 5 mM glucose + 10% dialyzed FBS, 0.00234 µM | 119 | 108 | 105
RPMI 5 mM glucose + 10% dialyzed FBS, 0.00702 µM | 106 | 90.4 | 100
RPMI 5 mM glucose + 10% dialyzed FBS, 0.0211 µM | 114 | 76.7 | 77.9
RPMI 5 mM glucose + 10% dialyzed FBS, 0.0632 µM | 110 | 60 | 68.8
RPMI 5 mM glucose + 10% dialyzed FBS, 0.19 µM | 102 | 47.5 | 59.2
RPMI 5 mM glucose + 10% dialyzed FBS, 0.569 µM | 105 | 44.1 | 53.4
RPMI 5 mM glucose + 10% dialyzed FBS, 1.71 µM | 115 | 43 | 52.3
RPMI 5 mM glucose + 10% dialyzed FBS, 5.12 µM | 97.1 | 42 | 50.5
RPMI 5 mM glucose + 10% dialyzed FBS, 15.4 µM | 95.3 | 37.5 | 39.7
RPMI 5 mM glucose + 10% dialyzed FBS, 46.1 µM | 63.7 | 28.4 | 19.3

AUC of viability dose-response curve
Details | NOMO1 [6] | P12-Ichikawa [5] | SEM cells [4]
HPLM + 10% dialyzed FBS | 446 | 324 | 317
RPMI 5 mM glucose + 10% FBS | 460 | 290 | 304
RPMI 5 mM glucose + 10% dialyzed FBS | 458 | 252 | 311
